Assay results from US5677152A, “Nucleic acid amplification using a reersibly inactivated thermostable enzyme” (Roche Molecular Systems, Inc., priority 1996, dated 1997).

B1: citraconylated rTth: citraconylated thermostable DNA polymerase from Thermus thermophilus (protein, UniProt P52028 1-834, looked up)
DNA polymerase I, thermostable: MEAMLPLFEPKGRVLLVDGHHLAYRTFFALKGLTTSRGEPVQAVYGFAKSLLKALKEDGYKAVFVVFDAKAPSFRHEAYEAYKAGRAPTPEDFPRQLALIKELVDLLGFTRLEVPGYEADDVLATLAKKAEKEGYEVRILTADRDLYQLVSDRVAVLHPEGHLITPEWLWEKYGLRPEQWVDFRALVGDPSDNLPGVKGIGEKTALKLLKEWGSLENLLKNLDRVKPENVREKIKAHLEDLRLSLELSRVRTDLPLEVDLAQGREPDREGLRAFLERLEFGSLLHEFGLLEAPAPLEEAPWPPPEGAFVGFVLSRPEPMWAELKALAACRDGRVHRAADPLAGLKDLKEVRGLLAKDLAVLASREGLDLVPGDDPMLLAYLLDPSNTTPEGVARRYGGEWTEDAAHRALLSERLHRNLLKRLEGEEKLLWLYHEVEKPLSRVLAHMEATGVRLDVAYLQALSLELAEEIRRLEEEVFRLAGHPFNLNSRDQLERVLFDELRLPALGKTQKTGKRSTSAAVLEALREAHPIVEKILQHRELTKLKNTYVDPLPSLVHPRTGRLHTRFNQTATATGRLSSSDPNLQNIPVRTPLGQRIRRAFVAEAGWALVALDYSQIELRVLAHLSGDENLIRVFQEGKDIHTQTASWMFGVPPEAVDPLMRRAAKTVNFGVLYGMSAHRLSQELAIPYEEAVAFIERYFQSFPKVRAWIEKTLEEGRKRGYVETLFGRRRYVPDLNARVKSVREAAERMAFNMPVQGTAADLMKLAMVKLFPRLREMGARMLLQVHDELLLEAPQARAEEVAALAKEAMEKAYPLAVPLEVEVGMGEDWLSAKG
modifications: citraconylated

Legend:
HIV-1 genomic sequence [1] = assay: Effect of pre-reaction incubation time on PCR product (HIV-1 model system); format: biochemical; details: for amplified product without a pre-reaction incubation (FIG. 4): 0 minutes pre-reaction incubation, compared with extended incubation
Experimental: Amplifications were carried out using the citraconylated and cis-aconitylated Taq DNA polymerases prepared as described above. For each set of amplification conditions, Taq DNA polymerases modified using a 80-fold and a 160-fold molar excess of citaconic anhydride, and a 90-fold and a 180-fold molar excess of cis-aconitic anhydride were used. Amplifications were carried out using the HIV-1 model system described in Example 6, above, except that the initial pre-reaction incubation was varied. For each enzyme preparation, amplifications were carried out using pre-reaction incubations of 12, 6, 3, and 0 minutes.
As noted above, the pre-reaction incubation step also serves as the initial denaturation step. Each cycle of a PCR begins with a denaturation step. Immediately following the initial pre-reaction incubation carried out at 95° C. for 12, 6, 3, or 0 minutes, each reaction mixture is incubated at 94° C. for 1 minute during the denaturation step of the first cycle. Thus, even when no pre-reaction incubation was used, enzyme activity is recovered during the denaturation step of the initial cycles.
The amplification products were analyzed by agarose gel electrophoresis. The band corresponding to the amplified target sequence is indicated. Bands appearing on the gel other than the band which corresponds to the amplified target sequence correspond to the products generated by the non-specific amplification of non-target sequences.

HIV-1 genomic sequence [2] = assay: Effect of amplification cycle number on PCR product (HIV-1 model system); format: biochemical; details: no pre-reaction incubation; 39, 43, 48, 60 cycles
Experimental: Amplifications were carried out using the Taq DNA polymerases modified using a 80-fold and a 160-fold molar excess of citraconic anhydride, and a 90-fold and a 180-fold molar excess of cis-aconitic anhydride. The Amplifications were carried out essentially as described above using the HIV-1 model system described in Example 6, except that the initial pre-reaction incubation and cycle numbers were varied. For each enzyme preparation, amplifications were carried out using the following conditions: […]
The amplification products were analyzed by agarose gel electrophoresis.

[3] = tested on: cloned HTLV-I genomic sequence; assay: PCR amplification of HTLV-I with citraconylated Taq DNA polymerase, agarose gel analysis; format: biochemical; details: 30 copies HTLV-I template; pre-reaction incubation 90° C. for 10 minutes; enzyme dilutions 1/10-1/80
Experimental: Amplifications were carried out using 1/20, 1/40, and 1/80 dilutions of the 240× modified Taq DNA polymerase described in Example 2. Dilutions were made in a buffer consisting of 20 mM Tris-HCl, pH 8.0 (at room temperature), 100 mM KCl, 0.1 mM EDTA (ethylenediaminetetraacetic acid), 1 mM DTT (dithiothreitol), 50% glycerol, 0.5% Tween 20, 0.5% Nonidet P40 (AmpliTaq®storage buffer, Perkin Elmer, Norwalk, Conn.). For comparison, amplifications also were carried out using 1/10, 1/20, 1/40, and 1/80 dilutions of unmodified Taq DNA polymerase.
A cloned HTLV-I genomic sequence was amplified using primers SK432 and SK111. The primer sequences are provided in U.S. Pat. No. 5,418,149, incorporated herein by reference. The PCR was carried out in a 100 μl reaction volume under the following reaction conditions.
30 copies of HTLV-I DNA template
(§1) 200 μM dATP, dCTP, and dGTP
0.5 μl of citraconylated Taq DNA polymerase solution
(§2) 1 unit of UNG (Perkin Elmer, Norwalk, Conn.) […]
The amplified products were analyzed by 4% agarose gel electrophoresis using a 1× TBE (0.089M Tris, 0.089M boric acid, 0.0025M disodium EDTA) running buffer. Electrophoresis was carried out at 100 volts for approximately 2 hours. Ethidium bromide (0.5 μg/ml) was added following electrophoresis to stain any DNA present. The gel was destained in 1× TBE and the ethidium bromide-stained bands of DNA were visualized using UV irradiation. […]

HIV-1 genomic sequence [4] = assay: PCR amplification of HIV-1 with citraconylated DNA polymerases, agarose gel analysis; format: biochemical; details: 100 copies HIV-1 template; pre-reaction incubation 95° C. for 12 minutes; enzyme dilutions 1/10-1/80
Experimental: Amplifications were carried out using dilutions of modified DNA polymerases. Dilutions were made in a buffer consisting of 20 mM Tris-HCl, pH 8.0 (at room temperature), 100 mM KCl,0.1 mM EDTA (ethylenediaminetetraacetic acid), 1 mM DTT (dithiothreitol), 50% glycerol, 0.5% Tween 20, 0.5% Nonidet P40 (AmpliTaq® storage buffer, Perkin Elmer, Norwalk, Conn.).
An HIV-1 genomic sequence was amplified using primers SK145 and SK431 (Perkin Elmer, Norwalk, Conn.). The PCR was carried out in a 100 μl reaction volume under the following reaction conditions.
100 copies of HIV-1 DNA template
as §1
0.5 μl of DNA polymerase solution
as §2
The pre-reaction incubation step also serves as the initial denaturation step. An initial denaturation step is routinely used in a typical amplification reaction to insure complete denaturation of the double-stranded target. Each cycle of the PCR begins with a denaturation step of 94° C. for 1 minute. Thus, immediately following the initial pre-reaction incubation carried out at 95° C. for 12 minutes, the reaction mixture is incubated at 94° C. for 1 minute during the denaturation step of the first cycle.
The amplified products were analyzed by agarose gel electrophoresis (100 ml of 3% NuSieve and 0.5% SeaChem) using a 1× TBE (0.089M Tris, 0.089M boric acid, 0.0025M disodium EDTA) running buffer. Electrophoresis was carried out at 100 volts for approximately 1 hour. Ethidium bromide (0.5 μg/ml) was added following electrophoresis to stain any DNA present. The gel was destained in TBE and the ethidium bromide-stained bands of DNA were visualized using UV irradiation.
Dilutions (1/10, 1/20, 1/40, and 1/80) of the citraconylated DNA polymerases described in Example 5 and the 240× citriconylated Taq DNA polymerase described in Example 2 were used in amplifications of HIV-1 nucleic acid and the amplified products were anaylzed by agarose gel electrophoresis. For comparison, amplifications were carried out using dilutions of unmodified Taq DNA polymerase. […]

[5] = Storage stability of inactivated enzyme; format: physicochemical; details: stored at 25° C.

| Molecule | amplified product without a pre-reaction incubation (FIG. 4) (HIV-1 genomic sequence [1]) | amplified product band over pre-reaction incubation times (FIG. 4) (HIV-1 genomic sequence [1]; pre-reaction incubations of 12, 6, 3 and 0 minutes at 95° C.) | effect of increasing the amplification cycle number on amplified product (FIG. 5) (HIV-1 genomic sequence [2]) | amplified target band versus non-specific amplification products (FIG. 2) [3] | amplified target band versus non-specific amplification products (FIG. 3) (HIV-1 genomic sequence [4]) | pre-reaction incubation required to obtain the maximum amount of amplified product (HIV-1 genomic sequence [1]; 95° C. pre-reaction incubation) | storage stability: time enzyme remains inactivated [5] |
| --- | --- | --- | --- | --- | --- | --- | --- |
| cis-aconitylated DNA polymerase: Taq DNA polymerase modified using cis-aconitic anhydride (90× and 180× preparations) | nearly as much product as the amplifications using an extended pre-reaction incubations | all pre-reaction incubation times resulted in a strong band corresponding to amplified product | The effect was smallest |  |  |  |  |
| citraconylated Taq DNA polymerase: Taq DNA polymerase modified using citraconic anhydride; 240× in Examples 4 and 6, 80× and 160× in Examples 9 and 10 | significantly less amplified product |  |  | significant increase in the intensity of the band corresponding to the amplified target sequence, and a significant decrease in the intensity of the bands corresponding to non-specific amplification products | intense band corresponding to the amplified target sequence for all but the 1/80 dilution | at least 3 minutes | remain inactivated for at least four weeks |
| unmodified Taq DNA polymerase: Taq DNA polymerase (AmpliTaq®, Perkin Elmer), unmodified comparison enzyme [reference compound] |  |  |  | predominantly non-specific amplification product | predominantly non-specific amplification product |  |  |
| B1 |  |  |  |  | greater production of specific amplification product than seen in amplifications using unmodified Taq DNA polymerase |  |  |
